Patent publication US9656962B2, “Ring-contracted morphinans and the use thereof” (Purdue Pharma L.P., priority 2013, dated 2017)

Biological target: μ-opioid receptor (Homo sapiens (Human), UniProt P35372)
Assay: μ-opioid receptor [35S]GTPγS functional assay, HEK-293 cells (Table 6)
Assay type: biochemical
Conditions: for Emax: relative to DAMGO; for EC50: μ GTP
Procedure: μ-Opioid Receptor Functional Assay Procedures: [^35S]GTPγS functional assays were conducted using freshly thawed μ-receptor membranes prepared in-house from a cell line expressing recombinant μ opioid receptor in a HEK-293, CHO or U-2 OS cell background, or purchased from a commercial source (Perkin Elmer, Shelton, Conn.; or DiscovRx, Fremont, Calif.). Assay reactions were prepared by sequentially adding the following reagents to binding buffer (100 mM NaCl, 10 mM MgCl2, 20 mM HEPES, pH 7.4) on ice (final concentrations indicated): membrane protein (0.026 mg/mL), saponin ([…]), GDP ([…]) and [^35S]GTPγS (0.20 nM; Perkin Elmer, Shelton, Conn.). The prepared membrane solution (190 μl/well) was transferred to 96-shallow well polypropylene plates containing 10 μl of 20× concentrated stock solutions of the agonist [D-Ala^2, N-methyl-Phe^4 Gly-ol^5]-enkephalin (DAMGO) prepared in dimethyl sulfoxide (DMSO). Plates were incubated for 30 min at about 25° C. with shaking Reactions were terminated by rapid filtration onto 96-well Unifilter GF/B filter plates (Perkin Elmer, Shelton, Conn.) using a 96-well tissue harvester (Perkin Elmer, Shelton, Conn.) followed by three filtration washes with 200 μl of ice-cold wash buffer (10 mM NaH2PO4, 10 mM Na2HPO4, pH 7.4). Filter plates were subsequently dried at 50° C. for 2-3 hours. BetaScint scintillation cocktail (Perkin Elmer, Shelton, Conn.) was added (50 μl/well) and plates were counted using a Packard Top-Count for 1 min/well. Data were analyzed using the sigmoidal dose-response curve fitting functions in GraphPad PRISM v. 3.0, or an in-house function for non-linear, sigmoidal dose-response curve-fitting. [^35S]GTPγS functional assays can also be conducted using freshly thawed μ-receptor membranes prepared from a cell line expressing recombinant μ opioid receptor in a CHO-K1 cell background.
μ GTP Emax (%) is the maximal effect elicited by a compound relative to the effect elicited by DAMGO, a standard μ agonist. Generally, the μ GTP Emax (%) value measures the efficacy of a compound to treat or prevent pain or other Conditions.
The following TABLE 6 provides results on the activity response of certain Compounds of the Invention at the μ- and κ-opioid receptors determined as described above using HEK-293 cells.

Structure (SMILES): C[C@@H]1CN(CCNC(=O)[C@@H]2C[C@]34CCN(CC5CC5)[C@H](Cc5ccc(O)cc53)[C@]4(O)C2)C[C@H](C)O1 [Compound 134, (2R,3aS,4R,9bS)-12-(cyclopropylmethyl)-N-(2-((2S,6R)-2,6-dimethylmorpholino)-ethyl)-3a,8-dihydroxy-1,2,3,3a,4,5-hexahydro-4,9b-(epiminoethano)-cyclopenta[a]naphthalene-2-carboxamide]
- Emax: 9.53 ± 0.9%
- EC50: 0.092 ± 0.0197 µM

Structure (SMILES): O=C(NCc1ccccc1O)[C@@H]1C[C@]23CCN(CC4CC4)[C@H](Cc4ccc(O)cc42)[C@]3(O)C1 [Compound 149, (2R,3aS,4R,9bS)-12-(cyclopropylmethyl)-3a,8-dihydroxy-N-(2-hydroxybenzyl)-1,2,3,3a,4,5-hexahydro-4,9b-(epimino-ethano)cyclopenta[a]naphthalene-2-carboxamide]
- Emax: 0%
- EC50 (bound given in μM): > 20 µM

Structure (SMILES): O=C(NCCc1ccc(Cl)cc1Cl)[C@@H]1C[C@]23CCN(CC4CC4)[C@H](Cc4ccc(O)cc42)[C@]3(O)C1 [Compound 130, (2R,3aS,4R,9bS)-12-(cyclopropylmethyl)-N-(2,4-dichlorophenethyl)-3a,8-dihydroxy-1,2,3,3a,4,5-hexahydro-4,9b-(epiminoethano)cyclopenta[a]naphthalene-2-carboxamide]
- Emax: 0%
- EC50 (bound given in μM): > 20 µM

Structure (SMILES): O=C(NCCc1ccc(Cl)cc1)[C@@H]1C[C@]23CCN(CC4CC4)[C@H](Cc4ccc(O)cc42)[C@]3(O)C1 [Compound 129, (2R,3aS,4R,9bS)-N-(4-chlorophenethyl)-12-(cyclopropylmethyl)-3a,8-dihydroxy-1,2,3,3a,4,5-hexahydro-4,9b-(epimino-ethano)cyclopenta[a]naphthalene-2-carboxamide]
- Emax: 1%
- EC50 (bound given in μM): > 20 µM

Structure (SMILES): O=C(NCc1cc(O)cc(O)c1)[C@@H]1C[C@]23CCN(CC4CC4)[C@H](Cc4ccc(O)cc42)[C@]3(O)C1 [Compound 139, (2R,3aS,4R,9bS)-12-(cyclopropylmethyl)-N-(3,5-dihydroxybenzyl)-3a,8-dihydroxy-1,2,3,3a,4,5-hexahydro-4,9b-(epimino-ethano)cyclopenta[a]naphthalene-2-carboxamide]
- Emax: -1%
- EC50 (bound given in μM): > 20 µM

Structure (SMILES): Cc1ccc(CNC(=O)[C@H]2C[C@]34CCN(C)[C@H](Cc5ccc(O)cc53)[C@]4(O)C2)cc1 [Compound 97, (2S,3aS,4R,9bS)-3a,8-dihydroxy-12-methyl-N-(4-methylbenzyl)-1,2,3,3a,4,5-hexahydro-4,9b-(epiminoethano)cyclo-penta[a]naphthalene-2-carboxamide]
- Emax: 90.3 ± 0.88%
- EC50: 0.0281 ± 0.00154 µM

Structure (SMILES): CN1CC[C@]23C[C@H](C(=O)NCc4ccc(Cl)c(Cl)c4)C[C@@]2(O)[C@H]1Cc1ccc(O)cc13 [Compound 101, (2S,3aS,4R,9bS)-N-(3,4-dichlorobenzyl)-3a,8-dihydroxy-12-methyl-1,2,3,3a,4,5-hexahydro-4,9b-(epiminoethano)cyclo-penta[a]naphthalene-2-carboxamide]
- Emax: 96.7 ± 2.19%
- EC50: 0.00158 ± 0.00022 µM

Structure (SMILES): O=C(NCc1ccc(F)cc1F)[C@@H]1C[C@]23CCN(CC4CC4)[C@H](Cc4ccc(O)cc42)[C@]3(O)C1 [Compound 147, (2R,3aS,4R,9bS)-12-(cyclopropylmethyl)-N-(2,4-difluorobenzyl)-3a,8-dihydroxy-1,2,3,3a,4,5-hexahydro-4,9b-(epimino-ethano)cyclopenta[a]naphthalene-2-carboxamide]
- Emax: -1%
- EC50 (bound given in μM): > 20 µM

Structure (SMILES): CN1CC[C@]23C[C@@H](C(=O)NCCc4ccccc4)C[C@@]2(O)[C@H]1Cc1ccc(O)cc13 [Compound 100, (2R,3aS,4R,9bS)-3a,8-dihydroxy-12-methyl-N-phenethyl-1,2,3,3a,4,5-hexahydro-4,9b-(epiminoethano)cyclo-penta[a]naphthalene-2-carboxamide]
- Emax: 50.3 ± 0.33%
- EC50: 1.1 ± 0.188 µM

Structure (SMILES): Cc1ccc(CNC(=O)[C@H]2C[C@]34CCN(CC5CC5)[C@H](Cc5ccc(C(N)=O)cc53)[C@]4(O)C2)cc1 [Compound 116, (2S,3aS,4R,9bS)-12-(cyclopropylmethyl)-3a-hydroxy-N^2-(4-methylbenzyl)-1,2,3,3a,4,5-hexahydro-4,9b-(epimino-ethano)cyclopenta[a]naphthalene-2,8-dicarboxamide]
- Emax: 23.6 ± 1.05%
- EC50: 0.00345 ± 0.00016 µM

Structure (SMILES): CN(C)CCN(C)C(=O)[C@@H]1C[C@]23CCN(C)[C@H](Cc4ccc(O)cc42)[C@]3(O)C1 [Compound 113, (2R,3aS,4R,9bS)-N-(2-(dimethylamino)-ethyl)-3a,8-dihydroxy-N,12-dimethyl-1,2,3,3a,4,5-hexahydro-4,9b-(epimino-ethano)cyclopenta[a]naphthalene-2-carboxamide]
- Emax: -1%
- EC50 (bound given in μM): > 20 µM

Structure (SMILES): NC(=O)c1ccc2c(c1)[C@]13CCN(CC4CC4)[C@H](C2)[C@]1(O)C[C@H](C(=O)NCCN1CCOCC1)C3 [Compound 118, (2R,3aS,4R,9bS)-12-(cyclopropylmethyl)-3a-hydroxy-N^2-(2-morpholinoethyl)-1,2,3,3a,4,5-hexahydro-4,9b-(epimino-ethano)cyclopenta[a]naphthalene-2,8-dicarboxamide]
- Emax: 13.2 ± 1.17%
- EC50: 0.175 ± 0.0099 µM

Structure (SMILES): O=C(NCc1cccc(O)c1O)[C@@H]1C[C@]23CCN(CC4CC4)[C@H](Cc4ccc(O)cc42)[C@]3(O)C1 [Compound 124, (2R,3aS,4R,9bS)-12-(cyclopropylmethyl)-N-(2,3-dihydroxybenzyl)-3a,8-dihydroxy-1,2,3,3a,4,5-hexahydro-4,9b-(epimino-ethano)cyclopenta[a]naphthalene-2-carboxamide]
- Emax: 1.93 ± 2.93%
- EC50 (bound given in μM): > 20 µM

Structure (SMILES): Cc1ccc(CNC(=O)[C@@H]2C[C@]34CCN(CC5CC5)[C@H](Cc5ccc(C(N)=O)cc53)[C@]4(O)C2)cc1 [Compound 117, (2R,3aS,4R,9bS)-12-(cyclopropylmethyl)-3a-hydroxy-N^2-(4-methylbenzyl)-1,2,3,3a,4,5-hexahydro-4,9b-(epimino-ethano)cyclopenta[a]naphthalene-2,8-dicarboxamide]
- Emax: -1.21 ± 0.21%
- EC50 (bound given in μM): > 20 µM

Structure (SMILES): CN1CC[C@]23C[C@@H](C(=O)NCCN4CCOCC4)C[C@@]2(O)[C@H]1Cc1ccc(O)cc13 [Compound 112, (2R,3aS,4R,9bS)-3a,8-dihydroxy-12-methyl-N-(2-morpholinoethyl)-1,2,3,3a,4,5-hexahydro-4,9b-(epimino-ethano)cyclopenta[a]naphthalene-2-carboxamide]
- Emax: 38.8 ± 1.54%
- EC50: 10.2 ± 0.241 µM

Structure (SMILES): CN1CC[C@]23C[C@@H](C(=O)N4CCOCC4)C[C@@]2(O)[C@H]1Cc1ccc(O)cc13 [Compound 111, ((2R,3aS,4R,9bS)-3a,8-dihydroxy-12-methyl-1,2,3,3a,4,5-hexahydro-4,9b-(epiminoethano)cyclopenta[a]naphthalen-2-yl)(morpholino)methanone]
- Emax: 35.1 ± 1.06%
- EC50: 3.17 ± 0.493 µM

Structure (SMILES): Cc1c(Cl)cccc1CNC(=O)[C@@H]1C[C@]23CCN(CC4CC4)[C@H](Cc4ccc(O)cc42)[C@]3(O)C1 [Compound 125, (2R,3aS,4R,9bS)-N-(3-chloro-2-methylbenzyl)-12-(cyclopropylmethyl)-3a,8-dihydroxy-1,2,3,3a,4,5-hexahydro-4,9b-(epiminoethano)cyclopenta-[a]naphthalene-2-carboxamide]
- Emax: -1%
- EC50 (bound given in μM): > 20 µM

Structure (SMILES): O=C(NCCN1CCCCC1)[C@H]1C[C@]23CCN(CC4CC4)[C@H](Cc4ccc(O)cc42)[C@]3(O)C1 [Compound 133, (2S,3aS,4R,9bS)-12-(cyclopropylmethyl)-3a,8-dihydroxy-N-(2-(piperidin-1-yl)ethyl)-1,2,3,3a,4,5-hexahydro-4,9b-(epiminoethano)cyclopenta[a]naphthalene-2-carboxamide]
- Emax: 29.8 ± 1.22%
- EC50: 0.0142 ± 0.00373 µM

Structure (SMILES): O=C(NCc1ccc(F)cc1F)[C@H]1C[C@]23CCN(CC4CC4)[C@H](Cc4ccc(O)cc42)[C@]3(O)C1 [Compound 146, (2S,3aS,4R,9bS)-12-(cyclopropylmethyl)-N-(2,4-difluorobenzyl)-3a,8-dihydroxy-1,2,3,3a,4,5-hexahydro-4,9b-(epimino-ethano)cyclopenta[a]naphthalene-2-carboxamide]
- Emax: 28.3 ± 1.13%
- EC50: 0.00222 ± 0.00041 µM

Structure (SMILES): O=C(NCc1ccc(O)c(O)c1)[C@@H]1C[C@]23CCN(CC4CC4)[C@H](Cc4ccc(O)cc42)[C@]3(O)C1 [Compound 140, (2R,3aS,4R,9bS)-12-(cyclopropylmethyl)-N-(3,4-dihydroxybenzyl)-3a,8-dihydroxy-1,2,3,3a,4,5-hexahydro-4,9b-(epimino-ethano)cyclopenta[a]naphthalene-2-carboxamide]
- Emax: 0.33 ± 0.67%
- EC50 (bound given in μM): > 20 µM
